“And” between values parts separate entries of the source, which are not always exact repeats. Equal entries are not always repeated. Where two headings read alike, the source gives them in different places.
Key:
[1] = test system: MCF-7 cells; experiment: mammosphere formation assay; format: cell-based, human; conditions: MCF-7, 5 μM, 7 days; for MFE (%) ave: mean of 3, control 0.87; for MFE (control = 1) ave: relative to control = 1; for MFE (%): single replicates
[2] = cytotoxicity in Drosophila DL1 cells; format: cell-based; conditions: Drosophila, DL1 cells (embryonic macrophage-derived), DL1 cells
Description: (§1) We screened the DDPs on the Drosophila assay system for cytotoxicity, inhibitory activity of innate immune signalling and insecticidal activity. The cytotoxicity of the DDPs was evaluated using two cell lines, embryonic macrophage-derived DL1 cells[58]–[60] and larval blood cell-derived l(2)mbn cells, and their IC50 values are listed in Supplementary Table 23.

[3] = test system: DL1 cells; experiment: cytotoxicity in Drosophila DL1 cells; format: cell-based; conditions: for IC50: Drosophila melanogaster
Description: as §1

[4] = cytotoxicity in Drosophila l(2)mbn cells; format: cell-based; conditions: Drosophila, l(2)mbn cells (larval blood cell-derived)
Description: as §1

[5] = test system: l(2)mbn cells; experiment: cytotoxicity in Drosophila l(2)mbn cells; format: cell-based; conditions: for Luminescence Raw1: replicate 1; for Luminescence Raw2: replicate 2; for IC50: Drosophila melanogaster, cytotoxicity
Description: as §1

[6] = test system: human immunodeficiency virus-1 (HIV-1); experiment: anti-HIV MAGI assay; format: cell-based; conditions: anti-HIV
From the text: (§2) We examined the inhibitory activities of DDPs against various species of bacteria (both gram-negative and gram-positive bacteria), fungi and viruses. […] In contrast, preliminary screening of the DDPs for anti-viral agents with hepatitis B virus (HBV), measles virus (MV), Epstein-Barr virus (EBV), herpes simplex virus (HSV) and human immunodeficiency virus-1 (HIV-1) indicated their selective inhibition of HIV.

[7] = test system: MAGI cells; experiment: cytotoxicity in the anti-HIV assay (CC50); format: cell-based; conditions: single determinations
[8] = test system: hepatitis B virus (HBV), measles virus (MV), Epstein-Barr virus (EBV), herpes simplex virus (HSV); experiment: preliminary anti-viral screening (other viruses); format: cell-based
From the text: as §2

[9] = replicate 1, relative to DMSO 1%, read-out: % viability, viability 1
[10] = replicate 2, relative to DMSO 1%, read-out: % viability, viability 2
[11] = DL1 cells, 0.04 µM, replicate 1
[12] = DL1 cells, 0.04 µM, replicate 2
[13] = DL1 cells, cytotoxicity, average of two replicates, read-out: IC50 Average
[14] = DL1 cells, cytotoxicity, replicate 1, read-out: IC50 (1)
[15] = DL1 cells, cytotoxicity, replicate 2, read-out: IC50 (2)
[16] = average of two replicates, read-out: IC50 Average
[17] = replicate 1, read-out: IC50 (1)
[18] = replicate 2, read-out: IC50 (2)
[19] = Human immunodeficiency virus 1, MAGI, MAGI assay, read-out: EC50
[20] = Human immunodeficiency virus 1, MAGI, average of numeric determinations, read-out: Avg. EC50

C=C1CC[C@H]2[C@]3(C)C[C@@H](C=C(C)C)O[C@H]3CC[C@]2(C)[C@@H]1Cc1c(O)c(C)c(C)oc1=O [Compound 5, subglutinol A]
MFE (%) ave [1]: 1.13%
MFE (control = 1) ave [1]: 1.30
MFE (%) [1]: 1.04% and 1.24% and 1.10%
viability at 0.04 µM [2, 9]: 6.35%
viability at 0.04 µM [2, 10]: 8.13%
viability at 0.2 µM [2, 9]: 3.78%
viability at 0.2 µM [2, 10]: 4.95%
viability at 1 µM [2, 9]: 3.62%
viability at 1 µM [2, 10]: 3.84%
viability at 4 µM [2, 9]: 3.94%
viability at 4 µM [2, 10]: 4.03%
viability at 10 µM [2, 9]: 3.69%
viability at 10 µM [2, 10]: 4.2%
viability at 20 µM [2, 9]: 3.33%
viability at 20 µM [2, 10]: 3.4%
Luminescence Raw1 [3, 11]: 261750
Luminescence Raw2 [3, 12]: 334946
Luminescence Raw1 ([3]; DL1 cells, 0.2 µM, replicate 1): 155744
Luminescence Raw2 ([3]; DL1 cells, 0.2 µM, replicate 2): 204060
Luminescence Raw1 ([3]; DL1 cells, 1 µM, replicate 1): 149254
Luminescence Raw2 ([3]; DL1 cells, 1 µM, replicate 2): 158268
Luminescence Raw1 ([3]; DL1 cells, 4 µM, replicate 1): 162234
Luminescence Raw2 ([3]; DL1 cells, 4 µM, replicate 2): 166201
Luminescence Raw1 ([3]; DL1 cells, 10 µM, replicate 1): 152139
Luminescence Raw2 ([3]; DL1 cells, 10 µM, replicate 2): 173051
Luminescence Raw1 ([3]; DL1 cells, 20 µM, replicate 1): 137356
Luminescence Raw2 ([3]; DL1 cells, 20 µM, replicate 2): 139880
IC50 [3, 13]: < 0.04 µM
IC50 [3, 14]: < 0.04 µM
IC50 [3, 15]: < 0.04 µM
IC50 ([3]; DL-1 cell line, cell growth, read-out: IC50): < 0.04 µM
viability at 0.04 µM [4, 9]: 139%
viability at 0.04 µM [4, 10]: 137%
viability at 0.2 µM [4, 9]: 19.9%
viability at 0.2 µM [4, 10]: 17%
viability at 1 µM [4, 9]: 8.99%
viability at 1 µM [4, 10]: 8.5%
viability at 4 µM [4, 9]: 8.31%
viability at 4 µM [4, 10]: 7.53%
viability at 10 µM [4, 9]: 8.2%
viability at 10 µM [4, 10]: 8.05%
viability at 20 µM [4, 9]: 7.67%
viability at 20 µM [4, 10]: 7.74%
Luminescence Raw1 ([5]; 0.04 µM): 3571044
Luminescence Raw2 ([5]; 0.04 µM): 3503586
Luminescence Raw1 ([5]; 0.2 µM): 510842
Luminescence Raw2 ([5]; 0.2 µM): 436923
Luminescence Raw1 ([5]; 1 µM): 230676
Luminescence Raw2 ([5]; 1 µM): 218056
Luminescence Raw1 ([5]; 4 µM): 213369
Luminescence Raw2 ([5]; 4 µM): 193177
Luminescence Raw1 ([5]; 10 µM): 210485
Luminescence Raw2 ([5]; 10 µM): 206518
Luminescence Raw1 ([5]; 20 µM): 196783
Luminescence Raw2 ([5]; 20 µM): 198586
IC50 [5, 16]: 0.19 µM
IC50 ([5]; average±SEM, read-out: IC50): 0.19 ± 0.01 µM
IC50 [5, 17]: 0.194 µM
IC50 [5, 18]: 0.18 µM
EC50 [6, 19]: < 0.2 µM
EC50 [6, 20]: 0.0389 µM
EC50 ([6]; Human immunodeficiency virus 1, MAGI, single determinations, read-out: Efficacy (EC50)): 0.0363 µM
EC50 ([6]; single determinations, read-out: Efficacy (EC50)): 0.0298 µM and 0.0379 µM and 0.0514 µM
Cytotoxicity [7]: >10 µM
effect on other viruses [8]: without affecting other viruses

C=C1CC[C@H]2[C@]3(C)C[C@@H](C=C(C)C)O[C@H]3CC[C@]2(C)[C@@H]1Cc1c(OC)oc(CO)c(C)c1=O [Compound 17]
MFE (%) ave [1]: 0.65%
MFE (control = 1) ave [1]: 0.75
MFE (%) [1]: 0.66% and 0.68% and 0.60%
viability at 0.04 µM [2, 9]: 195%
viability at 0.04 µM [2, 10]: 207%
viability at 0.2 µM [2, 9]: 174%
viability at 0.2 µM [2, 10]: 181%
viability at 1 µM [2, 9]: 94.2%
viability at 1 µM [2, 10]: 35.7%
viability at 4 µM [2, 9]: 19.3%
viability at 4 µM [2, 10]: 20.1%
viability at 10 µM [2, 9]: 18.3%
viability at 10 µM [2, 10]: 18.8%
viability at 20 µM [2, 9]: 15.2%
viability at 20 µM [2, 10]: 19.6%
Luminescence Raw1 [3, 11]: 2678864
Luminescence Raw2 [3, 12]: 2844064
Luminescence Raw1 ([3]; DL1 cells, 0.2 µM, replicate 1): 2387791
Luminescence Raw2 ([3]; DL1 cells, 0.2 µM, replicate 2): 2484453
Luminescence Raw1 ([3]; DL1 cells, 1 µM, replicate 1): 1292136
Luminescence Raw2 ([3]; DL1 cells, 1 µM, replicate 2): 490161
Luminescence Raw1 ([3]; DL1 cells, 4 µM, replicate 1): 264802
Luminescence Raw2 ([3]; DL1 cells, 4 µM, replicate 2): 275258
Luminescence Raw1 ([3]; DL1 cells, 10 µM, replicate 1): 251461
Luminescence Raw2 ([3]; DL1 cells, 10 µM, replicate 2): 258312
Luminescence Raw1 ([3]; DL1 cells, 20 µM, replicate 1): 208914
Luminescence Raw2 ([3]; DL1 cells, 20 µM, replicate 2): 269129
IC50 [3, 13]: 2.78 µM
IC50 ([3]; DL1 cells, cytotoxicity, average±SEM, read-out: IC50): 2.78 ± 0.68 µM
IC50 [3, 14]: 3.46 µM
IC50 [3, 15]: 2.1 µM
viability at 0.04 µM [4, 9]: 35.7%
viability at 0.04 µM [4, 10]: 83.5%
viability at 0.2 µM [4, 9]: 61.4%
viability at 0.2 µM [4, 10]: 95.4%
viability at 1 µM [4, 9]: 76.8%
viability at 1 µM [4, 10]: 97%
viability at 4 µM [4, 9]: 31.4%
viability at 4 µM [4, 10]: 22.2%
viability at 10 µM [4, 9]: 1.94%
viability at 10 µM [4, 10]: 1.93%
viability at 20 µM [4, 9]: 1.88%
viability at 20 µM [4, 10]: 3.89%
Luminescence Raw1 ([5]; 0.04 µM): 2242516
Luminescence Raw2 ([5]; 0.04 µM): 5241058
Luminescence Raw1 ([5]; 0.2 µM): 3856705
Luminescence Raw2 ([5]; 0.2 µM): 5991979
Luminescence Raw1 ([5]; 1 µM): 4822512
Luminescence Raw2 ([5]; 1 µM): 6091579
Luminescence Raw1 ([5]; 4 µM): 1969854
Luminescence Raw2 ([5]; 4 µM): 1392467
Luminescence Raw1 ([5]; 10 µM): 122097
Luminescence Raw2 ([5]; 10 µM): 121376
Luminescence Raw1 ([5]; 20 µM): 118130
Luminescence Raw2 ([5]; 20 µM): 243967
IC50 [5, 16]: 1.78 µM
IC50 ([5]; average±SEM, read-out: IC50): 1.78 ± 0.43 µM
IC50 [5, 17]: 1.35 µM
IC50 [5, 18]: 2.22 µM
EC50 [6, 19]: < 0.2 µM
EC50 [6, 20]: 1.36 µM
Cytotoxicity [7]: >10 µM
effect on other viruses [8]: without affecting other viruses

Reference: publication PMC7156458, “Synthetic biology based construction of biological activity-related library of fungal decalin-containing diterpenoid pyrones” (Nature Communications, 2020)
